pIC50: −log10 of the molar value. Values joined by “and” are separate entries in the source; they are usually repeats but may differ in a detail not shown here. Equal entries are not always repeated.
Tests used:
[1] = target: T1, human NCX 1.1 (Homo sapiens, UniProt P32418); assay: Fluorescence screening assay for hNCX 1.1 inhibition (reverse mode, Sf9 cells); format: cell-based; settings: for pIC50: Sf9 cells expressing human NCX1.1, reverse mode, fluorescence, n=3 assays
T1 construct: expressed in transfected cells
Protocol: Spodoptera frugiperda (Sf9; RRID:CVCL_0549) cells are widely used for the transient and stable expression of recombinant proteins. Here, Sf9 cells were stably transfected with human NCX 1.1 and maintained in spinner flasks with insect cell culture medium (TNM‐FH), supplemented with 10% FBS, antibiotic–antimycotic solution, and 50 μg·ml^−1 of blasticidin at 28°C in a non‐humidified, CO2‐free atmosphere. The Sf9 cell suspension was subcultured three times a week.
NCX reverse mode activity was stimulated via a 50% dilution of the extracellular Na^+ level using the internal pipettor of FLEXstation, a fluorescence imaging plate reader (Molecular Devices, USA), while simultaneously monitoring intracellular calcium levels. After dilution, the concentration of other ions remained the same, but Na^+ concentration was diluted to the half of original concentration of 172 to 86 mM. For Sf9 insect cells, normal extracellular Na^+ ion concentration is 172 mM. Typically, 50 μl of a solution containing 150,000–200,000 Sf9–NCX cells was loaded onto each well of a 96‐well plate. Cells were preincubated with the intracellular calcium dye Fluo‐4 and Fluo‐6, and the concentrations of the test compound (three replicates) were determined for about 1 h at room temperature before experimentation. The extracellular solution contained (in mM) 172 NaCl, 10 HEPES, 1 CaCl2, 1.2 MgCl2, 0.33 NaH2PO4, 5 glucose, and 5 probenecid. The pH was adjusted to 7.4 with NaOH. The extracellular Na^+ was diluted by the addition of a Na^+‐free extracellular solution (containing in mM: 147 N‐methyl‐D‐glucamine (NMDG), 10 HEPES, 1 CaCl2, 1.2 MgCl2, 0.33 NaH2PO4, and 5 glucose with the pH adjusted by HCl to 7.4)‐induced robust and reproducible elevation of intracellular calcium. The osmolarity of both solutions was adjusted to 340–355 mOsm in order to match the Sf9 cell media osmolarity. In each plate, the IC50 determination for each test compound was based on relative fluorescence changes in comparison with control and 5‐mM nickel acetate‐induced NCX inhibition.

[2] = target: T2, MAO A (Homo sapiens, UniProt P21397); assay: MAO A inhibition (Table S2); format: biochemical
T2 sequence (P21397 1-527): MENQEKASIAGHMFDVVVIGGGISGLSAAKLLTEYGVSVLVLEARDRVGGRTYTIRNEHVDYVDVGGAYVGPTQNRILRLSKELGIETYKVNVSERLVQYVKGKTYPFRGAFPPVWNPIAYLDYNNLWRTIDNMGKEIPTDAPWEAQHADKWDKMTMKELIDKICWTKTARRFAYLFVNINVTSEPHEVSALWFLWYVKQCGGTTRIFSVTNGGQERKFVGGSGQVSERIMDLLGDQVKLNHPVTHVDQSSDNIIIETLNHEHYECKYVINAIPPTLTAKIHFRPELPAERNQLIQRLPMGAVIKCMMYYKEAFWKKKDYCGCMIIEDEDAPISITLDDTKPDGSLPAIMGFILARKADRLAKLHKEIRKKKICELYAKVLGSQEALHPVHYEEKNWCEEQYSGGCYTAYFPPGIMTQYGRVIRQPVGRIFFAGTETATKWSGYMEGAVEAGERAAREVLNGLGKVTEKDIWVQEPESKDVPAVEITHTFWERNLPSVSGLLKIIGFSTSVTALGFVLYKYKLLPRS

[3] = target: T3, MAO B (Homo sapiens, UniProt P27338); assay: MAO B inhibition (Table S2); format: biochemical
T3 sequence (P27338 1-520): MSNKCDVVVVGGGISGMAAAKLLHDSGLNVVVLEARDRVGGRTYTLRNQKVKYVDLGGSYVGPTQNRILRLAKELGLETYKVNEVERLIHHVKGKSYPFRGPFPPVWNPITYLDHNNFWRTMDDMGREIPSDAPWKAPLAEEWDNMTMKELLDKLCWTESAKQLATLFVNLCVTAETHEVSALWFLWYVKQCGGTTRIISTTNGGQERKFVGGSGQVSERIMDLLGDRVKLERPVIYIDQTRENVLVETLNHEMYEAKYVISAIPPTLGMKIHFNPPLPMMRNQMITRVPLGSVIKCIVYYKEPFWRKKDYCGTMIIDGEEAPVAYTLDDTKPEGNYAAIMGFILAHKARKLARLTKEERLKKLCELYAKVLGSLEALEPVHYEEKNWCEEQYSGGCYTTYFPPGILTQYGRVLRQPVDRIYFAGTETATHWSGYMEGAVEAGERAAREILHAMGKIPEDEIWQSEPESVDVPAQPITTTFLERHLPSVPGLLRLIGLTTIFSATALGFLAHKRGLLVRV

Row | pIC50 [1] | pIC50 [2] | pIC50 [3] | MAO A inhibition ([2]; 10 μM) [%] | MAO B inhibition ([3]; 10 μM) [%] | SMILES | potency as NCX inhibitor relative to SEA0400 [1] | inhibition at 10 µM ([2]; 10 μM) [%] | inhibition at 10 µM ([3]; 10 μM) [%]
1 | 6.42 | 5.36 | 6.75 | – | – | CCOc1ccc(Oc2ccc(OCc3cc(F)ccc3F)cc2)c(N)c1 [SEA0400, reference compound] | – | – | –
2 | 6.71 | – | – | 11 | 52 | O=C(CN1CCC(O)CC1)Nc1ccc(Oc2ccc3c(c2)CCC(c2ccccc2)O3)nc1 (stereo not shown) [ORM-10962] | – | – | –

Row | SMILES | pIC50 [1] | pIC50 [2] | pIC50 [3] | MAO A inhibition ([2]; 10 μM) [%] | MAO B inhibition ([3]; 10 μM) [%] | potency as NCX inhibitor relative to SEA0400 [1] | inhibition at 10 µM ([2]; 10 μM) [%] | inhibition at 10 µM ([3]; 10 μM) [%]
3 | Nc1cccc(-c2ccc(CNc3ccc(F)cc3)o2)c1 [ORM‐11372] | 8.21 and 8.22 | – | – | – | – | more than 10 times | 29 | 77
